Among the data in PubChem BioAssay (NCI) are TGI and GI50 values, retold here.

Test systems include SN12C renal; MALME-3M melanoma; SW-620 colon; OVCAR-4 ovarian; SK-MEL-28 melanoma; OVCAR-3 ovarian; K-562 leukemia; UACC-62 melanoma; MOLT-4 leukemia.
Holding throughout (assay): inhibition of tumour cell growth, NCI panel, 48 h

The structures appear in SMILES notation.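 Growth conditions: 96-well plates. Treatment: test compound, 48 hours, 5 concentrations. Analysis: linear interpolation between bracketing concentrations; unreached endpoints set to highest concentration. Abbreviation: GI50, concentration required for 50% inhibition of growth. Definition used: TGI = concentration required for complete inhibition of growth.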

As to `O=C(NC(=Nc1ccccc1)SCSC(=Nc1ccccc1)NC(=O)c1ccco1)c1ccco1`, the TGI with SN12C renal, in the test with MALME-3M melanoma, in the test with SW-620 colon, in the test on OVCAR-4 ovarian, in the test with SK-MEL-28 melanoma and in the test with OVCAR-3 ovarian was greater than 100 µM each time. The TGI in the test with K-562 leukemia, with UACC-62 melanoma and with MOLT-4 leukemia was greater than 100 µM throughout.

Take `Nc1nc(N)c(CCCCc2ccccc2)c(C=O)n1`: the TGI with SN12C renal is 39.1 µM; with MALME-3M melanoma it was 36.3 µM; in the test with SW-620 colon it was 30.9 µM; in the test on OVCAR-4 ovarian, 70.6 µM; with SK-MEL-28 melanoma it was 32.3 µM; in the test with OVCAR-3 ovarian it was 32.6 µM. The TGI in the test with K-562 leukemia came out at 24.3 µM; in the test on UACC-62 melanoma it was 30.8 µM.

As for `COC(=O)c1cc(NC(=O)c2cc(NC(=O)c3cc([N+](=O)[O-])n(C)c3)cn2C)cn1C`, the GI50 in the test with SN12C renal is greater than 100 µM; with SW-620 colon, greater than 100 µM; in the test with OVCAR-3 ovarian it was greater than 100 µM; with K-562 leukemia, greater than 100 µM; in the test on UACC-62 melanoma it was 23.8 µM. In addition, the TGI in the test with SN12C renal, in the test on SW-620 colon, in the test on OVCAR-3 ovarian, in the test with K-562 leukemia and in the test on UACC-62 melanoma was greater than 100 µM throughout.

Take `O=C1/C(=C/c2ccc([N+](=O)[O-])s2)Oc2cc(Cl)ccc21`: the GI50 was 2.36 µM in the test on SN12C renal; 0.217 µM with SW-620 colon; 0.325 µM with OVCAR-3 ovarian; 0.296 µM in the test on K-562 leukemia; 0.998 µM with UACC-62 melanoma. In addition, the TGI was greater than 100 µM in the test with SN12C renal; 0.524 µM in the test with SW-620 colon; 0.898 µM in the test on OVCAR-3 ovarian; 1.46 µM with K-562 leukemia; 3.14 µM in the test on UACC-62 melanoma.

For `Cc1cc(Cl)nc2ccc(Cc3ccc4nc(Cl)cc(C)c4c3)cc12`, the TGI in the test with SN12C renal, in the test on MALME-3M melanoma, in the test with SW-620 colon, in the test with OVCAR-4 ovarian, in the test on SK-MEL-28 melanoma and with OVCAR-3 ovarian was greater than 100 µM in each case. The TGI in the test on K-562 leukemia, in the test with UACC-62 melanoma and in the test on MOLT-4 leukemia was greater than 100 µM in each case.

For the compound `COc1ccc(Nc2nc3cc(C(F)(F)F)ccc3nc2-c2ccccc2)cc1OC`, the TGI is greater than 100 µM in the test with SN12C renal; 85.8 µM in the test on MALME-3M melanoma; greater than 100 µM in the test with SW-620 colon; greater than 100 µM in the test on OVCAR-4 ovarian; 63.8 µM in the test on SK-MEL-28 melanoma; greater than 100 µM in the test on OVCAR-3 ovarian. The TGI in the test with K-562 leukemia, in the test with UACC-62 melanoma and with MOLT-4 leukemia was greater than 100 µM in each case.

With `CN1C(=O)CC2(C)c3cc(O)cc(Br)c3N(C)C12` (stereo unspecified), the TGI in the test with SN12C renal, in the test with MALME-3M melanoma, in the test on SW-620 colon, in the test on SK-MEL-28 melanoma, in the test with OVCAR-3 ovarian and with K-562 leukemia was greater than 100 µM each time. The TGI in the test with UACC-62 melanoma and in the test on MOLT-4 leukemia was greater than 100 µM throughout.

Turning to `CC1(C)NC(=O)N(CCCCCCN2C(=O)NC(C)(C)C2=O)C1=O`, the TGI in the test on SN12C renal, in the test with MALME-3M melanoma, with SW-620 colon, with OVCAR-4 ovarian, in the test on SK-MEL-28 melanoma and with K-562 leukemia was greater than 100 µM each time. Also, the TGI with UACC-62 melanoma and in the test with MOLT-4 leukemia was greater than 100 µM each time.

In the case of `O=Cc1cccc2ccc3ccccc3c12`, the TGI in the test with SN12C renal was found to be 88.5 µM; with MALME-3M melanoma, 49.7 µM; in the test on SW-620 colon it was 74.3 µM; in the test with OVCAR-3 ovarian it was 40.4 µM; with UACC-62 melanoma, 76 µM.

With `N#CCCN(CCC#N)c1ccc(/C=C(/NC(=O)c2cc([N+](=O)[O-])ccc2Cl)C(=O)NN)cc1`, the TGI in the test with SN12C renal, in the test with MALME-3M melanoma, with SW-620 colon, in the test with OVCAR-4 ovarian, in the test on SK-MEL-28 melanoma and in the test with OVCAR-3 ovarian was greater than 100 µM in each case. In addition, the TGI in the test with K-562 leukemia, in the test on UACC-62 melanoma and in the test with MOLT-4 leukemia was greater than 100 µM in each case.

In the case of `CC1(C)CC(=O)C=C(/C=C/Sc2c(Cl)c(Cl)nc(Cl)c2Cl)C1`, the GI50 in the test on SN12C renal was 4.56 µM; in the test on SW-620 colon, 11.8 µM; in the test with OVCAR-4 ovarian, 20.3 µM; with SK-MEL-28 melanoma, 15.5 µM; with OVCAR-3 ovarian, 2.6 µM; with K-562 leukemia, 8.79 µM. The GI50 was 8.48 µM in the test with UACC-62 melanoma and 4.61 µM in the test on MOLT-4 leukemia. Further, the TGI is 16.3 µM with SN12C renal; 32.7 µM in the test on SW-620 colon; 57.9 µM in the test with OVCAR-4 ovarian; 31.9 µM with SK-MEL-28 melanoma; 8.29 µM in the test on OVCAR-3 ovarian; greater than 100 µM with K-562 leukemia. Also, the TGI in the test on UACC-62 melanoma was 20.8 µM; in the test with MOLT-4 leukemia, greater than 100 µM.
